What was measured:
[1] = biological target: T1, thrombin (Homo sapiens, UniProt P00734); experiment: Activity-based profiling of thrombin (SDS-PAGE, streptavidin-HRP western blot); type: binding; conditions: pre-treatment 30 min, 37°C
T1 construct: apparent molecular mass of 31 kDa, corresponding to the heavy (catalytic) chain of the protease; purchased R&D Systems
Description: (§1) Samples of recombinant protease (trypsin, plasmin, thrombin, chymotrypsin, or HNE, as indicated in the relevant figure legends) were treated with each of the newly synthesized compounds at a concentration of 50 μM, for 30 min, at 37°C. A control sample (no ABP) was prepared by treating the recombinant protease with solvent vehicle (DMF) only, used to prepare the stock solution of each ABP. Samples were also pre-treated (±90°C for 30 min) before being incubated with each putative ABP. With trypsin and thrombin, further samples were prepared where Z-Arg^P-(OPh)2 or NAP559, respectively, was added 30 min prior to the addition of the ABP under examination. All treated samples were then denatured with SDS containing reducing treatment buffer (10 min at 95°C), followed by resolution by SDS-PAGE and subjected to Western blotting. Resolved proteins were then transferred onto the nitrocellulose membrane and labeled with streptavidin-HRP. The ABP–protease complex was then visualized following treatment with Luminata Forte HRP substrate.
(§2) FIGURE 8 Activity Based Profiling of Trypsin-like serine proteases. (A) trypsin was treated (±) with NAP830, for 30 min, at 37°C (± pretreatment with Z-Arg^P-(OPh)2). (B) thrombin (1 […]) was pre-treated with various concentrations of NAP559 (30 min, at 37°C) followed by treatment (±) with NAP858 for 30 min, at 37°C. (C) Plasmin was treated in turn with QUBTL1, NAP962 and NAP830, (± pre-heat inactivation at 95°C, for 10 min) for 30 min, at 37°C. […]
(§3) Following transfer, the extra protein binding sites on the membrane were blocked by addition of 3% (w/v) BSA in TBST (20 mM Tris, 137 mM NaCl, 1% (v/v) Tween 20, pH 7.6) and agitated gently at room temperature for 30 minutes. The biotin-labelled proteases were then detected by addition of Streptavidin-HRP (Vector Laboratories) in 3% (w/v) BSA in TBST at a concentration of 1:20000, for 1 hour at room temperature. […]

[2] = biological target: T2, plasmin (Homo sapiens, UniProt P00747); experiment: Activity-based profiling of plasmin (SDS-PAGE, streptavidin-HRP western blot); type: binding; conditions: 50 μM, 30 min, 37°C
T2 construct: purchased Sigma-Aldrich (supplement); R&D Systems; host or cells: human plasma
T2 sequence (P00747 581-810 limits assumed): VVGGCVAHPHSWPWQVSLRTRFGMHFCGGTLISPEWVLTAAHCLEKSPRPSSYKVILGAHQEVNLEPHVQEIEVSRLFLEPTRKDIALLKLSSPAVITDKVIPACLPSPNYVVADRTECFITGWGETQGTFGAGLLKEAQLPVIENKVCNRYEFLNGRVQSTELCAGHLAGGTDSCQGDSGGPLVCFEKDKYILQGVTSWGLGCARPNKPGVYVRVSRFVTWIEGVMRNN
T2 sequence (P00747 97-580 partner limits assumed): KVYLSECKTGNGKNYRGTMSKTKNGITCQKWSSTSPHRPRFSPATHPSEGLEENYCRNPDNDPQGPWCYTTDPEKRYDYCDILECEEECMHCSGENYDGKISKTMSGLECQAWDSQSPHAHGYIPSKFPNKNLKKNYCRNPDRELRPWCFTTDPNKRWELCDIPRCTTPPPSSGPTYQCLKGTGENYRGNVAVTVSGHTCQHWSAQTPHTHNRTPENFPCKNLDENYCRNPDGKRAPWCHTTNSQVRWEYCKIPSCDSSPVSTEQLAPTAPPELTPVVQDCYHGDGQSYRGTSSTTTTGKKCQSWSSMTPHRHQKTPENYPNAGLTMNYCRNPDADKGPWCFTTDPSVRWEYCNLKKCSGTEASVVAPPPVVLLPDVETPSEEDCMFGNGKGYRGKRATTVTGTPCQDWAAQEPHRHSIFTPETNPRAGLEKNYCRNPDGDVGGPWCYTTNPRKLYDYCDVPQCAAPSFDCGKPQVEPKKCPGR
Description: as §1, §2, §3

Structure (SMILES)	effect of pre-treatment of thrombin on 31 kDa band disclosed by NAP858 ([1]; 1 μM)	effect of pre-treatment of thrombin on 31 kDa band disclosed by NAP858 ([1]; 10 and 50 μM)	labelling of plasmin by ABP (western blot) [2]
N=C(N)NCCCN(CC(=O)N1CCC[C@H]1C(=O)N(CC(N)=O)Cc1ccccc1)C(=O)ON1C(=O)CCC1=O [NAP559, Succinimidoyl-CO-NArg-D-Pro-NPhe-NH2]	slight but a discernible diminution in the intensity of the band	almost completely extinguished	–
NCCCCN(CC(=O)NCC(=O)NCC(=O)NCCCOCCOCCOCCCNC(=O)CCCCC1SCC2NC(=O)NC21)C(=O)ON1C(=O)CCC1=O (stereo not drawn) [NAP830, Succinimidoyl-CO-NLys-Gly-Gly-PEG-Biotin]	–	–	A band corresponding to the light (catalytic) chain of plasmin (26 kDa) was visible
CC(C)N(CC(=O)NCCCOCCOCCOCCCNC(=O)CCCCC1SCC2NC(=O)NC21)C(=O)CN(Cc1ccccc1)C(=O)CN(CCCCN)C(=O)ON1C(=O)CCC1=O (stereo not shown) [NAP962, Succinimidoyl-CO-NLys-NPhe-NVal-PEG-Biotin]	–	–	A band corresponding to the light (catalytic) chain of plasmin (26 kDa) was visible

— paper PMC9555310, “Novel inhibitors and activity-based probes targeting serine proteases” (Frontiers in Chemistry, 2022)
